From patent publication US4593090A, “Novel nitrosourea compounds, method for preparing same, and pharmaceutical composition containing same” (Gogo Kimura, priority 1981, dated 1986)
Like-named read-outs stand apart in the source and are kept apart here.

Assays:
[1] = system: Leukemia L1210; test: Activity against Leukemia L1210, intraperitoneal, increase in life span of mice; type: in vivo, female mice (BDF1 family); conditions: for ED (maximum ILS) / ED30: Mus musculus, L1210, ip, ip once a day for 5 successive days; for ED (maximum ILS): daily dosage giving maximum increase of life span, read-out: O.D. (optimum dosage); for ED30: daily dosage increasing average survival days by 30%, read-out: ILS30; for Survivors after 60 days / Max. ILS % / Therapeutic ratio TR: ip; for Survivors after 60 days: 6-membered group; for Max. ILS %: 60-day observation, versus control; for Therapeutic ratio TR: O.D./ILS30
Outline: (§1)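 L1210 cells (1×10^5) into abdominal cavity of female BDF1 mice, 20–23 g, n=6/group. Dosing 24 h post-implant, ip or po, qd ×5. 60-day observation; ILS% = mean survival vs untreated control; T.R. = O.D./ILS 30.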

[2] = system: Leukemia L1210; test: Activity against Leukemia L1210, oral, increase in life span of mice; type: in vivo, female mice (BDF1 family); conditions: for ED (maximum ILS) / ED30: Mus musculus, L1210, oral once a day for 5 successive days; for ED (maximum ILS): daily dosage giving maximum increase of life span, read-out: O.D. (optimum dosage); for ED30: daily dosage increasing average survival days by 30%, read-out: ILS30; for Survivors after 60 days / Max. ILS % / Therapeutic ratio TR: oral; for Survivors after 60 days: 6-membered group; for Max. ILS %: 60-day observation, versus control; for Therapeutic ratio TR: O.D./ILS30
Outline: as §1

[3] = system: Ehrlich acites carcinoma; test: Growth-inhibiting effect against Ehrlich acites carcinoma; type: in vivo, male mice; conditions: Mus musculus, Ehrlich, 120 h, 5 days; for response vs control in vivo at 25 mg/kg: 25 mg/kg/day ip; for response vs control in vivo at 100 mg/kg: 100 mg/kg/day ip
Outline: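 Activity graded from T/C% of total packed ascites cell volume on day 7 (treated vs untreated): - 100-66, + 65-41, ++ 40-11, +++ 10-0. Groups of 6 male mice bore 1×10^7 i.p.-implanted cells and received compound (1% Nikkol HCO-60) i.p. daily for 5 days from 24 hrs after implantation.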

[4] = Acute toxicity (LD50, Behrens-Karber method); type: in vivo, ICR mice; conditions: mouse, in vivo, ip, mortality during 30 days
Method: Test compounds, dissolved or suspended in 0.5% aqueous CMC, were each intraperitoneally administered to ICR mice in a dose of 0.1 ml per 10 g body weight. LD50 (mg/kg) value of each test compound was calculated from the mortality of mice during 30 days by the Behrens-Karber method.

[5] = Diuretic activity, acute sodium loaded mouse screening test; type: in vivo, male mice; conditions: 50 mg/kg oral in 1% saline; for Cl^- / K^+ / Na^+: urine
Method: The diuretic activity of the compounds of this invention was assayed by the diuresis screening test referred to as "acute sodium loaded mouse". This test was carried out by the following method.
The acute sodium loaded mouse screening test was carried out by using a 10-membered group of male mice (each weighing 18 to 24 g). Test compounds were incorporated in 1% saline (NaCl) solution and orally administered in a volume of 10 ml/kg. The mice were placed in metabolic cages. Each treated group consisted of 10-members. Five members were placed in one cage. Tests were conducted by oral administrations of (A) 1% saline (NaCl) solution to the control group and (B) 1% saline (NaCl) solution containing a test compound according to this invention.
The determination was carried out for sodium, potassium, and chlorine in each pooled urine sample. The determination of sodium and potassium was carried out by flame photometer. Chlorine was determined by chloride analysis apparatus. The analytical values of sodium, potassium, and chlorine were shown with an average mg equivalent (m Eq)/Kg/5 hours, and the diuretic activity was shown with an average urine volume (ml)/Kg/5 hours.

Row | Structure (SMILES) | ED (maximum ILS) [1] | ED30 [1] | Survivors after 60 days [1] | Max. ILS % [1] | Therapeutic ratio TR [1] | ED (maximum ILS) [2] | ED30 [2] | Survivors after 60 days [2] | Max. ILS % [2] | Therapeutic ratio TR [2] | response vs control in vivo at 25 mg/kg ([3]; read-out: Activity) | response vs control in vivo at 25 mg/kg ([3]; read-out: T/C %) | response vs control in vivo at 100 mg/kg ([3]; read-out: Activity) | response vs control in vivo at 100 mg/kg ([3]; read-out: T/C %) | LD50 at 720 h [4] | Urine volume [5] | Cl^- [5] | K^+ [5] | Na^+ [5]
1 | COCCN(C[C@H]1O[C@H](OCC(C)C)[C@@H](O)[C@@H](O)[C@@H]1O)C(=O)N(CCCl)N=O [Compound 135, 3-(2-methoxyethyl)-3-(isobutyl α-D-mannopyranose-6-yl)-1-(2-chloroethyl)-1-nitrosourea] | 200 mg/kg | 2.92 mg/kg | 6/6 | > 700% | 68.5 | 240 mg/kg | 9.92 mg/kg | 6/6 | > 700% | 24.2 | 0 to 10% | 0% | 0 to 10% | 0% | 620 mg/kg | 9.7 ml/kg/5 hrs. | 0.8 mEq/kg/5 hrs. | 0.9 mEq/kg/5 hrs. | 0.7 mEq/kg/5 hrs.
2 | CC(C)CO[C@H]1O[C@H](CN(CC2CCCO2)C(=O)N(CCCl)N=O)[C@@H](O)[C@H](O)[C@H]1O (stereo partly drawn) [Compound 23, 3-tetrahydrofurfuryl-3-(isobutyl α-D-glucopyranose-6-yl)-1-(2-chloroethyl)-1-nitrosourea] | 200 mg/kg | 3 mg/kg | 5/6 | > 630% | 66.7 | 250 mg/kg | 8.74 mg/kg | 5/6 | > 625% | 28.6 | 0 to 10% | 0% | 0 to 10% | 0% | 620 mg/kg | 10.2 ml/kg/5 hrs. | 0.8 mEq/kg/5 hrs. | 1.0 mEq/kg/5 hrs. | 0.7 mEq/kg/5 hrs.
3 | CCOCCCN(C(=O)N(CCCl)N=O)C1C(OC2CCCCC2)OC(CO)C(O)C1O [Compound 65, 3-(3-ethoxy-n-propyl)-3-(cyclohexyl α-D-glucopyranose-2-yl)-1-(2-chloroethyl)-1-nitrosourea] | 200 mg/kg | 4.44 mg/kg | 5/6 | > 620% | 45.0 | – | – | – | – | – | 0 to 10% | 0% | 0 to 10% | 0% | 655 mg/kg | 8.8 ml/kg/5 hrs. | 0.7 mEq/kg/5 hrs. | 0.8 mEq/kg/5 hrs. | 0.6 mEq/kg/5 hrs.
4 | COC(C)CO[C@H]1O[C@H](CN(CC2CCCO2)C(=O)N(CCCl)N=O)[C@H](O)[C@H](O)[C@H]1O (stereo partly drawn) [Compound 117, 3-tetrahydrofurfuryl-3-(2-methoxy-n-propyl α-D-galactopyranose-6-yl)-1-(2-chloroethyl)-1-nitrosourea] | 200 mg/kg | 3.3 mg/kg | 6/6 | > 700% | 60.6 | – | – | – | – | – | 0 to 10% | 0% | 0 to 10% | 0% | 610 mg/kg | 8.4 ml/kg/5 hrs. | 0.7 mEq/kg/5 hrs. | 0.9 mEq/kg/5 hrs. | 0.5 mEq/kg/5 hrs.
5 | COC(C)CN(C(=O)N(CCCl)N=O)C1C(O)C(CO)OC(OC2CCCCC2)C1O [Compound 86, 3-(2-methoxy-n-propyl)-3-(cyclohexyl α-D-glucopyranose-3-yl)-1-(2-chloroethyl)-1-nitrosourea] | 200 mg/kg | 4.9 mg/kg | 4/6 | > 430% | 40.8 | – | – | – | – | – | 0 to 10% | 0% | 0 to 10% | 0% | 695 mg/kg | 10.2 ml/kg/5 hrs. | 0.9 mEq/kg/5 hrs. | 1.0 mEq/kg/5 hrs. | 0.7 mEq/kg/5 hrs.
6 | COCCN(C[C@H]1O[C@H](OC2CCCCC2)[C@H](O)[C@@H](O)[C@@H]1O)C(=O)N(CCCl)N=O [Compound 39, 3-(2-methoxyethyl)-3-(cyclohexyl α-D-glucopyranose-6-yl)-1-(2-chloroethyl)-1-nitrosourea] | 170 mg/kg | 2.47 mg/kg | 6/6 | > 700% | 68.8 | 220 mg/kg | 7.43 mg/kg | 5/6 | > 635% | 29.6 | 0 to 10% | 0% | 0 to 10% | 0% | 510 mg/kg | 9.2 ml/kg/5 hrs. | 0.7 mEq/kg/5 hrs. | 0.8 mEq/kg/5 hrs. | 0.6 mEq/kg/5 hrs.
7 | COCCN(C(=O)N(CCCl)N=O)C1C(CO)OC(OCC(C)C)C(O)C1O [Compound 93, 3-(2-methoxyethyl)-3-(isobutyl α-D-glucopyranose-4-yl)-1-(2-chloroethyl)-1-nitrosourea] | 160 mg/kg | 4.49 mg/kg | 3/6 | > 370% | 35.6 | – | – | – | – | – | 0 to 10% | 0% | 0 to 10% | 0% | 530 mg/kg | 9.6 ml/kg/5 hrs. | 0.7 mEq/kg/5 hrs. | 0.9 mEq/kg/5 hrs. | 0.6 mEq/kg/5 hrs.
8 | CCCCO[C@H]1O[C@H](CO)[C@@H](O)[C@H](O)[C@H]1N(CCCOC)C(=O)N(CCCl)N=O [Compound 57, 3-(3-methoxy-n-propyl)-3-(n-butyl α-D-glucopyranose-2-yl)-1-(2-chloroethyl)-1-nitrosourea] | 190 mg/kg | 5.5 mg/kg | 3/6 | > 355% | 34.5 | – | – | – | – | – | 0 to 10% | 0% | 0 to 10% | 0% | 570 mg/kg | 9.7 ml/kg/5 hrs. | 0.8 mEq/kg/5 hrs. | 0.9 mEq/kg/5 hrs. | 0.7 mEq/kg/5 hrs.
